Assay results taken from patent publication US10294212B2 (CURADEV PHARMA PRIVATE LTD., priority 2013, dated 2019).

Experiments:
[1] = target: Human TDO (hTDO)-transfected CHO-K1 cells (Homo sapiens (Human), UniProt P48775); test: CHO-K1 cell based TDO assay; settings: hTDO cellular assay
How it was run: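 Kynurenine output was read by LC/MS/MS after TCA precipitation and 15 min at 65° C. Before that, CHO-K1 cells stably carrying human TDO2 were incubated 2 h with compounds (typically 31 μM to 10 nM) and 80 μM L-tryptophan in HBSS. Decrease versus DMSO vehicle gave percent inhibition, then IC50.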

[2] = target: Human indoleamine 2,3-dioxygenase1 (hIDO1) (Homo sapiens (Human), UniProt P14902); test: In-vitro IDO1 enzyme assay (conversion of L-tryptophan to KYN); type: biochemical; settings: read-out: IC50 (IDO1) Enz
How it was run: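 Kynurenine formation quantified by HPLC absorbance at 360 nm or LC/MS/MS after TCA quench and 15 min at 65 °C. Reaction: 10 nM N-His hIDO1, 30 μM tryptophan, ascorbate/methylene blue/catalase, pH 6.5 phosphate buffer, 37 °C for 30 min. Inhibition relative to 1% DMSO vehicle, fitted to IC50.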

[3] = target: IDO1 in HeLa cells (Homo sapiens (Human), UniProt P14902); test: HeLa cell based IDO1 assay (IFNγ-induced, KYN in supernatant)
How it was run: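 Kynurenine in the supernatant, quantified by C-18 HPLC with 360 nm absorbance after TCA hydrolysis (65 °C, 15 min), was the read-out. Compounds (typically 10 μM to 1 nM) were added in HBSS containing 80 μM tryptophan to HeLa cells pre-induced overnight with 50 ng/mL IFNγ. IC50 came from nonlinear fits of % inhibition versus 1% DMSO vehicle.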

Sequence of Human TDO (hTDO)-transfected CHO-K1 cells (P48775 whole entry): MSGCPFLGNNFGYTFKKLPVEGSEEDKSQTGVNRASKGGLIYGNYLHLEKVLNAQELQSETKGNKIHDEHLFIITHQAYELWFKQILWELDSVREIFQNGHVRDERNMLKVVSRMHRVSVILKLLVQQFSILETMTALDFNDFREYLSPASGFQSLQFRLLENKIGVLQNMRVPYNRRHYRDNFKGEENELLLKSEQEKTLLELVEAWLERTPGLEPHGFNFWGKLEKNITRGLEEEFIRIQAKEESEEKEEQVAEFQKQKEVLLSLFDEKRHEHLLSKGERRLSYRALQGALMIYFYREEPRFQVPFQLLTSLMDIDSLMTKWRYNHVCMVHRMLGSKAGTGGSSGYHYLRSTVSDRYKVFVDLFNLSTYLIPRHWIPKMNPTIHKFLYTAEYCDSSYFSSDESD
Sequence of IDO1 in HeLa cells (P14902 whole entry): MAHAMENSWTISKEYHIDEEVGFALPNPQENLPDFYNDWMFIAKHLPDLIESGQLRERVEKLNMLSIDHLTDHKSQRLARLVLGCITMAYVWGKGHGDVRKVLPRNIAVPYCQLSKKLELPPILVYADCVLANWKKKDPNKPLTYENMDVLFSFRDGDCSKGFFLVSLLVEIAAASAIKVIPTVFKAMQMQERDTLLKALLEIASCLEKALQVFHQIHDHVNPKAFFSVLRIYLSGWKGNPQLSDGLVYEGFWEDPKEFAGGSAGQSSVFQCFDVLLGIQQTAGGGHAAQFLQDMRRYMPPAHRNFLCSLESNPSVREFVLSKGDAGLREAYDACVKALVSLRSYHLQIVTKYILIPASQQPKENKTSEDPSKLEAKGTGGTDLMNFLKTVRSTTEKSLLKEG
Sequence of Human indoleamine 2,3-dioxygenase1 (hIDO1) (P14902 whole entry): as above

Structure (SMILES) | IC50 [1] [nM] | IC50 [2] [nM] | IC50 [3] [nM]
Nc1oc2c(-c3ccncc3)nccc2c1Nc1ccc(F)c(F)c1 [Compound 184, N^3-(3,4-difluorophenyl)-7-(pyridin-4-yl)furo[2,3-c]pyridine-2,3-diamine] | < 500 | < 200 | < 200
Nc1oc2cnccc2c1Nc1ccc(F)c(Cl)c1 [Compound 2, N^3-(3-Chloro-4-fluoro-phenyl)-furo[2,3-c]pyridine-2,3-diamine] | 500 to 2000 | < 200 | < 200
Nc1oc2c(-c3ccncc3)nccc2c1Nc1ccc(F)c(Cl)c1 [Compound 97, N^3-(3-Chloro-4-fluorophenyl)-7-(pyridin-4-yl)furo[2,3-c]pyridine-2,3-diamine] | < 500 | < 200 | < 200
